Data: patent US20250034515A1, “Method of Production of Organoids and Uses Thereof” (Université de Strasbourg, priority 2021, published 2025)

Test system: Aspc-1 cells
Assay: Viability of pancreatic cancerous 3D organoids in liquid pearls (Calcein-AM / propidium iodide, Celigo image cytometry)
Format: cell-based, human
Settings: AsPC-1 organoids in liquid pearls; Gemcitabine 80 μM
Procedure: FIG. 4. Effects of an ethanolic plant extract on 3D cultured cells viability. Pancreatic cancer cells seeded at 10^5 cells/mL were injected and grown in liquid pearls at a volume of 150 μL for 24 hours, then exposed to ethanolic extract #138-10D (80 μg/ml), vehicle or Gemcitabine (80 μM). After 24 hours of incubation, the cells were labeled (Calcein-AM=green-living cells and propidium iodide=red-dead cells). The composite image of the two channels was analyzed by imaging cytometry.
In a first step, medium filling the pearls is prepared using DMEMhigh glucose complete medium supplemented by 1.2% of methylcellulose solution (MC) at a ratio of 4 to 1. For spheroid generation, 150 μL of pearls medium were dispensed onto fumed silica-coated 6-well plates, then Aspc-1 cells, at a density of 10,000 cells/mL, were directly injected into each pearl. The injected pearls were then incubated in a humidified incubator at 37 C° and 5% CO2.
After 24 hours, 50 μL of complete medium containing the different extracts (final concentration 80 μg/mL) were injected into each pearl and incubated for an additional 48 hours. […] Pearls containing cancerous organoids were finally analyzed on Celigo image cytometer (Cyntellect Inc, San Diego, CA, USA).

Nc1ccn([C@@H]2O[C@H](CO)[C@@H](O)C2(F)F)c(=O)n1 [Gemcitabine]
activity on AsPC-1 cells (3D cultured cells viability): only active on AsPC-1 cells at a concentration of 80 μM
